Assay [1] concerns Dengue-2 (Strain New Guinea C). Briefly: Viral yield assay against Dengue-2 in Vero cells. To be noted: Dengue virus, read-out: Activity (EC50 in μM) DENV-2. It is filed as cell-based, Dengue virus. Put shortly: (§1)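 Yield reduction, Vero; MOI 0.1; compound vs DMSO; 37° C; harvest 48 h p.i.; titer on Vero; EC50 fitted. Other serotypes run the same way.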
Another assay relates to DENV-1. Put plainly: Viral yield assay against DENV-1 in Vero cells. It is filed as cell-based. Particulars: Dengue virus, DENV1, viral yield assay. Put shortly: as §1
The subject of another assay is DENV-3. Put plainly: Viral yield assay against DENV-3 in Vero cells. It is filed as cell-based. To be noted: Dengue virus, DENV3, viral yield assay. The procedure, abridged:
as §1

The next assay has as its system DENV-4. Briefly: Viral yield assay against DENV-4 in Vero cells. The format is cell-based. To be noted: Dengue virus, DENV4, viral yield assay. Put shortly: as §1
The mark [2] stands for this setting: DENV2, viral yield assay, Vero cells, MOI 0.1, 48 hours post infection.

Read-outs that look alike come from different tables or passages of the source.

For orientation: EC50 means the midpoint of the concentration-response curve.

As for `COc1ccc(-c2ccc3c(N)c(C(=O)Nc4cc(Cl)ccc4Cl)sc3n2)cc1OC` [Compound 575, 3-amino-N-(2,5-dichlorophenyl)-6-(3,4-dimethoxyphenyl)thieno[2,3-b]pyridine-2-carboxamide], the 50% effective concentration (EC50) (in assay [1] (setting [2]); in the assay with DENV-1; with DENV-3; with DENV-4) was less than 5 µM in each case.

For `COc1ccc(-c2ccc3c(N)c(C(=O)Nc4ccc(C)cc4Br)sc3n2)cc1OC` [Compound 576, 3-amino-N-(2-bromo-4-methyl-phenyl)-6-(3,4-dimethoxyphenyl)thieno[2,3-b] pyridine-2-carboxamide], the concentration for a half-maximal effect (EC50) (in assay [1] (setting [2]); in the assay on DENV-1; in the assay on DENV-3; in the assay on DENV-4) was less than 5 µM throughout.

Turning to `COc1ccc(-c2ccc3c(N)c(C(=O)Nc4ccc(C)c(C)c4)sc3n2)cc1OC` [Compound 577, 3-amino-6-(3,4-dimethoxyphenyl)-N-(3,4-dimethylphenyl)thieno[2,3-b] pyridine-2-carboxamide], the EC50 (in assay [1] (setting [2]); in the assay on DENV-1; in the assay on DENV-3; in the assay with DENV-4) was less than 5 µM in each case.

On to `COc1ccc(-c2ccc3c(N)c(C(=O)Nc4ccc(Br)c(C(F)(F)F)c4)sc3n2)cc1OC` [Compound 583, 3-amino-N-[4-bromo-3-(trifluoromethyl)phenyl]-6-(3,4-dimethoxyphenyl)thieno [2,3-b]pyridin-2-carboxamide], for which the 50% effective concentration (EC50) (in assay [1] (setting [2]); with DENV-1; in the assay on DENV-3; in the assay on DENV-4) was less than 5 µM throughout.

Turning to `Nc1c(C(=O)Nc2ccc3c(c2)OCO3)sc2nc(-c3ccc4c(c3)OCO4)ccc12` [Compound 591, 3-amino-N,6-bis(1,3-benzodioxol-5-yl) thieno[2,3-b]pyridine-2-carboxamide], the EC50 in assay [1] (DENV2, Vero, 48 h) is less than 5 µM; in the assay on DENV-1 it was less than 5 µM; in the assay on DENV-3, less than 5 µM; in the assay on DENV-4 it was less than 5 µM.

Consider `Cc1ccc(NC(=O)c2sc3nc(-c4ccc5c(c4)OCO5)ccc3c2N)c(C)c1` [Compound 596, 3-amino-6-(1,3-benzodioxol-5-yl)-N-(2,4-dimethyphenyl)thieno[2,3-b]pyridine-2-carboxamide], for which the concentration giving a half-maximal response (EC50) (in assay [1] (setting [2]); in the assay with DENV-1; in the assay with DENV-3; in the assay on DENV-4) was less than 5 µM each time.

With `Nc1c(C(=O)Nc2ccc(F)c(F)c2)sc2nc(-c3ccc4c(c3)OCO4)ccc12` [Compound 597, 3-amino-6-(1,3-benzodioxol-5-yl)-N-(3,4-difluorophenyl)thieno[2,3-b]pyridine-2-carboxamide], the EC50 in assay [1] (DENV2, Vero, 48 h) was less than 5 µM; with DENV-1 it was less than 5 µM; in the assay on DENV-3 it was less than 5 µM; in the assay on DENV-4 it was less than 5 µM.

In the case of `Nc1c(C(=O)Nc2ccc(Cl)cc2F)sc2nc(-c3ccc4c(c3)OCO4)ccc12` [Compound 598, 3-amino-6-(1,3-benzodioxol-5-yl)-N-(4-chloro-2-fluoro-phenyl)thieno[2,3-b] pyridine-2-carboxamide], the EC50 (in assay [1] (setting [2]); in the assay on DENV-1; in the assay on DENV-3; in the assay with DENV-4) was less than 5 µM each time.

Turning to `COc1ccc(C(F)(F)F)cc1NC(=O)c1sc2nc(-c3ccc4c(c3)OCO4)ccc2c1N` [Compound 599, 3-amino-6-(1,3-benzodioxol-5-yl)-N-[2-methoxy-5-(trifluoromethyl)phenyl]thieno [2,3-b]pyridine-2-carboxamide], the concentration giving a half-maximal response (EC50) (in assay [1] (setting [2]); in the assay on DENV-1; with DENV-3; in the assay with DENV-4) was less than 5 µM each time.

For `Nc1c(C(=O)Nc2ccc(Cl)c(C(F)(F)F)c2)sc2nc(-c3ccc4c(c3)OCO4)ccc12` [Compound 600, 3-amino-6-(1,3-benzodioxol-5-yl)-N-[4-chloro-3-(trifluoromethyl)phenyl]thieno [2,3-b]pyridine-2-carboxamide], the EC50 (in assay [1] (setting [2]); in the assay on DENV-1; with DENV-3; in the assay on DENV-4) was less than 5 µM each time.

Consider `Nc1c(C(=O)Nc2cccc(F)c2)sc2nc(-c3ccc4c(c3)OCO4)ccc12` [Compound 602, 3-amino-6-(1,3-benzodioxol-5-yl)-N-(3-fluorophenyl)thieno[2,3-b]pyridine-2-carboxamide], for which the EC50 was less than 5 µM in assay [1] (DENV2, Vero, 48 h); less than 5 µM in the assay on DENV-1; less than 5 µM with DENV-3; 5 to 25 µM in the assay with DENV-4.

Consider `CCc1cccc(NC(=O)c2sc3nc(-c4ccc(F)cc4)ccc3c2N)c1` [Compound 609, 3-amino-N-(3-ethylphenyl)-6-(4-fluorophenyl)thieno[2,3-b]pyridine-2-carboxamide], for which the EC50 is less than 5 µM in assay [1] (setting [2]), less than 5 µM in the assay on DENV-1, 5 to 25 µM in the assay on DENV-3 and 5 to 25 µM in the assay on DENV-4.

With `Cc1ccc(NC(=O)c2sc3nc(-c4ccc(F)cc4)ccc3c2N)cc1F` [Compound 612, 3-amino-N-(3-fluoro-4-methyl-phenyl)-6-(4-fluorophenyl)thieno[2,3-b]pyridine-2-carboxamide], the EC50 (in assay [1] (setting [2]); in the assay on DENV-1; in the assay on DENV-3; in the assay on DENV-4) was less than 5 µM throughout.

Turning to `Nc1c(C(=O)Nc2ccc(F)c(F)c2)sc2nc(-c3ccc(F)cc3)ccc12` [Compound 615, 3-amino-N-(3,4-difluorophenyl)-6-(4-fluorophenyl)thieno[2,3-b]pyridine-2-carboxamide], the EC50 (in assay [1] (setting [2]); with DENV-1; in the assay with DENV-3; with DENV-4) was less than 5 µM throughout.

Turning to `Nc1c(C(=O)Nc2ccc(Br)cc2F)sc2nc(-c3ccc(F)cc3)ccc12` [Compound 616, 3-amino-N-(4-bromo-2-fluoro-phenyl)-6-(4-fluorophenyl)thieno[2,3-b]pyridine-2-carboxamide], the EC50 (in assay [1] (setting [2]); with DENV-1; with DENV-3; in the assay with DENV-4) was less than 5 µM throughout.

On to `Nc1c(C(=O)Nc2ccc(Cl)cc2F)sc2nc(-c3ccc(F)cc3)ccc12` [Compound 617, 3-amino-N-(4-chloro-2-fluoro-phenyl)-6-(4-fluorophenyl)thieno[2,3-b]pyridine-2-carboxamide], for which the EC50 (in assay [1] (setting [2]); in the assay on DENV-1; with DENV-3; in the assay with DENV-4) was less than 5 µM in each case.

Consider `Nc1c(C(=O)Nc2ccc(Cl)cc2)sc2nc(-c3ccc(F)cc3)ccc12` [Compound 620, 3-amino-N-(4-chlorophenyl)-6-(4-fluorophenyl)thieno[2,3-b]pyridine-2-carboxamide], for which the 50% effective concentration (EC50) (in assay [1] (setting [2]); with DENV-1; in the assay on DENV-3; in the assay with DENV-4) was less than 5 µM throughout.

Regarding `CSc1ccc(NC(=O)c2sc3nc(-c4ccc(F)cc4)ccc3c2N)cc1` [Compound 625, 3-amino-6-(4-fluorophenyl)-N-(4-methylsulfanylphenyl)thieno[2,3-b] pyridine-2-carboxamide], the concentration giving a half-maximal response (EC50) was less than 5 µM in assay [1] (setting [2]), less than 5 µM in the assay on DENV-1, less than 5 µM with DENV-3 and more than 25 µM in the assay with DENV-4.

These data come from patent US20170121344A1 (Siga Technologies, Inc., priority 2009, published 2017).
